The values that follow come from patent publication US11814364B2, “Pyridine N-oxide derivatives useful as factor XIa inhibitors” (Janssen Pharmaceutica NV, priority 2021, dated 2023).

As usually defined, the IC50 is the concentration that gives 50% inhibition.

Structures are written as SMILES.

Chain of human plasma kallikrein (P03952 391-638 limits assumed): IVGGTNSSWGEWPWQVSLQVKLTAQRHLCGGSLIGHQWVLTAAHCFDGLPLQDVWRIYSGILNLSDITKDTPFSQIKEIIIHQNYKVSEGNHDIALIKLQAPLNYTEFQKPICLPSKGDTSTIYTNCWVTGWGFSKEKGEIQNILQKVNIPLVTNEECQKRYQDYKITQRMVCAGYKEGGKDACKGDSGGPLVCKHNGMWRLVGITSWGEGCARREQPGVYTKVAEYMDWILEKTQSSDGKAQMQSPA
Chain of human plasma kallikrein (P03952 20-390 partner limits assumed): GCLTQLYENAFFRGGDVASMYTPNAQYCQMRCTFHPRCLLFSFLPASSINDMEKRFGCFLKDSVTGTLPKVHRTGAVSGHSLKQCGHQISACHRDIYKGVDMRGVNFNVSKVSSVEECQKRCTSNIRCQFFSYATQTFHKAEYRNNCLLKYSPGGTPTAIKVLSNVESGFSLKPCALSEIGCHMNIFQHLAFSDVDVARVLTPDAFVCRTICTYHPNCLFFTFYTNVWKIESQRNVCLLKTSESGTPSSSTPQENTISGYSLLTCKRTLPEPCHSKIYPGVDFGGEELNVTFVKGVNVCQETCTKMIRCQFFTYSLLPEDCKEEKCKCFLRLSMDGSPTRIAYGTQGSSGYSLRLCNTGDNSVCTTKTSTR

The assay has as its target human plasma kallikrein (Homo sapiens, UniProt P03952). The experiment in a line: Kallikrein inhibition FLINT assay with quenched AMC peptide substrate Z-Gly-Pro-Arg-AMC (end point EP or kinetic KIN reads). Type of assay: biochemical. Conditions: kinetic reads at 5 min intervals over 30 min; read-out: Kallikrein (KIN) IC50. Put shortly:
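Enzyme and compound were preincubated 30 min before adding 50 μM AMC substrate in pH 7.5 Tris/NaCl/CaCl2/BSA/CHAPS buffer. AMC release was read at 30 min endpoint or every 5 min.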
Consider `[O-][n+]1cc(-c2c(-n3cnnn3)ccc(Cl)c2F)ccc1[C@@H](CC1CC1)n1cc(-c2c(F)cnn2C(F)F)cn1` [Example P628], for which the IC50 was determined as 165 nM.
On to `[O-][n+]1cc(-c2c(-n3cc(Cl)nn3)ccc(Cl)c2F)ccc1[C@@H](Cn1cc(F)cn1)n1cc(-c2c(F)cnn2C(F)F)cn1` [Example P631], for which the IC50 was found to be 66.2 nM.
Regarding `[O-][n+]1cc(-c2c(-n3cc(Cl)nn3)ccc(Cl)c2F)ccc1[C@H](Cn1cc(F)cn1)n1cc(-c2c(F)cnn2C(F)F)cn1` [Example P634], the IC50 worked out at 739 nM.
Consider `Cn1nncc1-c1cnn([C@H](Cc2ccc(F)cc2)c2ccc(-c3c(-n4cc(OC(F)F)nn4)ccc(Cl)c3F)c[n+]2[O-])c1` [Example P635], for which the IC50 amounted to 3.4 nM.
The result for `COCCC(c1ccc(-c2c(-n3cc(Cl)nn3)ccc(Cl)c2F)c[n+]1[O-])n1cc(-c2c(Cl)nnn2C)cn1` (stereo not drawn) [Example P639] reads 316 nM; that for `CC(C)(C)OCC[C@H](c1ccc(-c2c(-n3cnnn3)ccc(Cl)c2F)c[n+]1[O-])n1cc(-c2ccnn2C(F)F)cn1` [Example P640], 179 nM.
The figure for `[O-][n+]1cc(-c2c(-n3cc(Cl)nn3)ccc(Cl)c2F)ccc1[C@@H](Cn1cc(F)cn1)n1cc(-c2ccnn2C(F)F)cn1` [Example P643] is 50.5 nM; for `[O-][n+]1cc(-c2c(-n3cnnn3)ccc(Cl)c2F)ccc1C(Cn1cc(F)cn1)n1cc(-c2ccnn2C(F)F)cn1` (stereo not drawn) [Example P645] it is 893 nM; for `COC(C)(C)C[C@H](c1ccc(-c2c(-n3cnnn3)ccc(Cl)c2F)c[n+]1[O-])n1cc(-c2ccnn2C(F)F)cn1` [Example P646] it is 506 nM.
Regarding `CC(C)(O)C[C@H](c1ccc(-c2c(-n3cnnn3)ccc(Cl)c2F)c[n+]1[O-])n1cc(-c2ccnn2C(F)F)cn1` [Example P648], the IC50 is 532 nM.
For the compound `CC(C)n1ccc(C[C@@H](c2ccc(-c3c(-n4cnnn4)ccc(Cl)c3F)c[n+]2[O-])n2cc(-c3ccnc(C(F)(F)F)c3)cn2)n1` [Example P651], the half-inhibitory concentration (IC50) amounted to 307 nM.
Take `CC(C)n1ccc(C[C@H](c2ccc(-c3c(-n4cnnn4)ccc(Cl)c3F)c[n+]2[O-])n2cc(-c3ccnc(C(F)(F)F)c3)cn2)n1` [Example P652]: the half-maximal inhibitory concentration (IC50) is 2.2 nM.
In the case of `[O-][n+]1cc(-c2c(-n3cc(Cl)nn3)ccc(Cl)c2F)ccc1[C@@H](Cn1cc(OC(F)F)cn1)n1cc(-c2cn(C(F)F)nn2)cn1` [Example P655], the IC50 turned out to be 734 nM.
Take `[O-][n+]1cc(-c2c(-n3cnnn3)ccc(Cl)c2F)ccc1[C@@H](CC1CCC1)n1cc(-c2cn(C(F)F)nn2)cn1` [Example P657]: the IC50 worked out at 468 nM.
Regarding `[O-][n+]1cc(-c2c(-n3cc(Cl)nn3)ccc(Cl)c2F)ccc1[C@@H](CCOC(F)F)n1cc(-c2cnn(C(F)F)n2)cn1` [Example P666], the IC50 came to 212 nM.
The figure for `[O-][n+]1cc(-c2c(-n3cc(Cl)nn3)ccc(Cl)c2F)ccc1[C@@H](CCOC(F)F)n1cc(-c2cnnn2C(F)F)cn1` [Example P668] is 39.2 nM; for `[O-][n+]1cc(-c2c(-n3cnnn3)ccc(Cl)c2F)ccc1[C@@H](CCOC(F)F)n1cc(-c2cnn(C(F)F)n2)cn1` [Example P674] it is 54.9 nM; for `[O-][n+]1cc(-c2c(-n3cnnn3)ccc(Cl)c2F)ccc1[C@@H](CCOC(F)F)n1cc(-c2cnnn2C(F)F)cn1` [Example P676] it is 11.8 nM.
As for `[O-][n+]1cc(-c2c(-n3cc(Cl)nn3)ccc(Cl)c2F)ccc1[C@@H](CCOC(F)F)n1cc(-c2cn(C(F)F)nn2)cn1` [Example P679], the IC50 turned out to be 353 nM.
`Cn1ncc(F)c1-c1cnn([C@H](CCOC(F)F)c2ccc(-c3c(-n4cc(Cl)nn4)ccc(Cl)c3F)c[n+]2[O-])c1` [Example P680]: the IC50 was determined as 29 nM.
For the compound `[O-][n+]1cc(-c2c(-n3cc(Cl)nn3)ccc(Cl)c2F)ccc1[C@@H](CCOC(F)F)n1cc(-c2ncnn2C(F)F)cn1` [Example P683], the IC50 is 29.5 nM.
The result for `[O-][n+]1cc(-c2c(-n3cc(Cl)nn3)ccc(Cl)c2F)ccc1[C@@H](Cn1cccn1)n1cc(-c2cnnn2C(F)F)cn1` [Example P685] reads 151 nM; that for `COCC[C@H](c1ccc(-c2c(-n3cnnn3)ccc(Cl)c2F)c[n+]1[O-])n1cc(-c2cnnn2C(F)F)cn1` [Example P690], 180 nM.
For `[O-][n+]1cc(-c2c(-n3cc(Cl)nn3)ccc(Cl)c2F)ccc1[C@@H](CCOC(F)F)n1cc(-c2nncn2C(F)F)cn1` [Example P692], the IC50 was found to be 334 nM.
`Cn1cc(CC(c2ccc(-c3c(-n4cnnn4)ccc(Cl)c3F)c[n+]2[O-])n2cc(-c3ccnc(C(F)(F)F)c3)cn2)nn1` (stereo not drawn) [Example P695]: the IC50 is 43.7 nM.
For `[O-][n+]1cc(-c2c(-n3cnnn3)ccc(Cl)c2F)ccc1C(Cc1ccn(C(F)F)n1)n1cc(-c2ccnc(C(F)(F)F)c2)cn1` (stereo not drawn) [Example P703], the IC50 stood at 9.7 nM.
The result for `Cn1nnc(-c2cnn([C@H](CCOC(F)F)c3ccc(-c4c(-n5cc(Cl)nn5)ccc(Cl)c4F)c[n+]3[O-])c2)c1F` [Example P705] reads 210 nM; that for `[O-][n+]1cc(-c2c(-n3cnnn3)ccc(Cl)c2F)ccc1C(CC1CC1)n1cc(-c2cnn(C(F)(F)F)c2)cn1` (stereo not drawn) [Example P708], 658 nM.
The figure for `[O-][n+]1cc(-c2c(-n3cnnn3)ccc(Cl)c2F)ccc1[C@@H](CCOC(F)F)n1cc(-c2c(Cl)nnn2C(F)F)cn1` [Example P714] is 28.6 nM; for `Cn1ncc(C[C@@H](c2ccc(-c3c(-n4cc(Cl)nn4)ccc(Cl)c3F)c[n+]2[O-])n2cc(-c3ccnc(C(F)(F)F)c3)cn2)n1` [Example P715] it is 830 nM; for `[O-][n+]1cc(-c2c(-n3cnnn3)ccc(Cl)c2F)ccc1[C@@H](Cc1nccs1)n1cc(-c2ccnn2C(F)F)cn1` [Example P718] it is 11.1 nM.
For `Cn1ncnc1-c1cnn([C@H](CCOC(F)F)c2ccc(-c3c(-n4cc(Cl)nn4)ccc(Cl)c3F)c[n+]2[O-])c1` [Example P722], the IC50 is 39.6 nM.
Turning to `Cn1nnc(F)c1-c1cnn([C@H](CCOC(F)F)c2ccc(-c3c(-n4cnnn4)ccc(Cl)c3F)c[n+]2[O-])c1` [Example P724], the IC50 was 8.5 nM.
With `Cn1nnc(Cl)c1-c1cnn([C@H](CCOC(F)F)c2ccc(-c3c(-n4cnnn4)ccc(Cl)c3F)c[n+]2[O-])c1` [Example P726], the IC50 was found to be 7.7 nM.
Regarding `[O-][n+]1cc(-c2c(-n3cnnn3)ccc(Cl)c2F)ccc1[C@@H](Cc1ccc(C(F)F)cc1)n1cc(-c2cnnn2C(F)F)cn1` [Example P731], the IC50 was determined as 64.9 nM.
In the case of `[O-][n+]1cc(-c2c(-n3cnnn3)ccc(Cl)c2F)ccc1[C@@H](Cc1ccn(C(F)F)n1)n1cc(-c2ccnn2C(F)F)cn1` [Example P734], the IC50 was determined as 6.4 nM.
Take `Cn1cc(C[C@H](c2ccc(-c3c(-n4cnnn4)ccc(Cl)c3F)c[n+]2[O-])n2cc(-c3ccnc(C(F)(F)F)c3)cn2)nn1` [Example P736]: the IC50 turned out to be 8.4 nM.
Turning to `Cn1cc(C[C@@H](c2ccc(-c3c(-n4cnnn4)ccc(Cl)c3F)c[n+]2[O-])n2cc(-c3ccnc(C(F)(F)F)c3)cn2)nn1` [Example P737], the concentration for half-maximal inhibition (IC50) is 818 nM.
The figure for `Cn1cc(C[C@H](c2ccc(-c3c(-n4cc(Cl)nn4)ccc(Cl)c3F)c[n+]2[O-])n2cc(-c3ccnc(C(F)(F)F)c3)cn2)nn1` [Example P739] is 22.8 nM; for `[O-][n+]1cc(-c2c(-n3cnnn3)ccc(Cl)c2F)ccc1C(Cc1nn(CC(F)(F)F)cc1F)n1cc(-c2ccnc(C(F)(F)F)c2)cn1` (stereo not drawn) [Example P741] it is 22.1 nM; for `[O-][n+]1cc(-c2c(-n3cnnn3)ccc(Cl)c2F)ccc1[C@@H](Cc1cnn(C(F)F)n1)n1cc(-c2ccnc(C(F)(F)F)c2)cn1` [Example P742] it is 19.1 nM.
Turning to `Cn1nnc(F)c1-c1cnn(C(CC2CC2)c2ccc(-c3c(-n4cnnn4)ccc(Cl)c3F)c[n+]2[O-])c1` (stereo not drawn) [Example P743], the IC50 was more than 100 nM.
As for `Cn1nnc(F)c1-c1cnn(C(CC2CC2)c2ccc(-c3c(-n4cnnn4)ccc(Cl)c3F)c[n+]2[O-])c1` (stereo not drawn) [Example P744], the IC50 turned out to be 48.9 nM.
For `[O-][n+]1cc(-c2c(-n3cnnn3)ccc(Cl)c2F)ccc1[C@H](Cc1cn(C(F)F)nn1)n1cc(-c2ccnc(C(F)(F)F)c2)cn1` [Example P746], the IC50 was determined as 588 nM.
As for `Cn1ncc(O)c1-c1cnn(C(CCOC(F)F)c2ccc(-c3c(-n4cc(Cl)nn4)ccc(Cl)c3F)c[n+]2[O-])c1` (stereo not drawn) [Example P747], the IC50 stood at 26.2 nM.
Turning to `[O-][n+]1cc(-c2c(-n3cnnn3)ccc(Cl)c2F)ccc1[C@@H](Cc1cn(C(F)F)nn1)n1cc(-c2ccnc(C(F)(F)F)c2)cn1` [Example P748], the IC50 is 6.4 nM.
`Cn1nnc(F)c1-c1cnn(C(CCOC(F)F)c2ccc(-c3c(-n4cnnn4)ccc(Cl)c3F)c[n+]2[O-])c1` (stereo not drawn) [Example P749]: the IC50 worked out at 19.8 nM.
As for `[O-][n+]1cc(-c2c(-n3cnnn3)ccc(Cl)c2F)ccc1C(Cc1ccc(C(F)(F)F)nc1)n1cc(-c2ccnn2C(F)F)cn1` (stereo not drawn) [Example P753], the IC50 stood at 54.3 nM.
Take `Cn1nnc(F)c1-c1cnn([C@H](CCOC(F)F)c2ccc(-c3c(-n4cc(C(F)(F)F)nn4)ccc(Cl)c3F)c[n+]2[O-])c1` [Example P754]: the IC50 was found to be 74.3 nM.
Turning to `Cn1ncnc1-c1cnn(C(CCOC(F)F)c2ccc(-c3c(-n4cc(C(F)(F)F)nn4)ccc(Cl)c3F)c[n+]2[O-])c1` (stereo not drawn) [Example P757], the IC50 worked out at 31.9 nM.
As for `Cn1cc(-c2cnn([C@H](CCOC(F)F)c3ccc(-c4c(-n5cc(C(F)(F)F)nn5)ccc(Cl)c4F)c[n+]3[O-])c2)nn1` [Example P760], the IC50 came to 454 nM.
The figure for `Cn1nncc1-c1cnn([C@H](CCOC(F)F)c2ccc(-c3c(-n4cc(C(F)(F)F)nn4)ccc(Cl)c3F)c[n+]2[O-])c1` [Example P761] is 41.6 nM; for `[O-][n+]1cc(-c2c(-n3cnnn3)ccc(Cl)c2F)ccc1[C@@H](CC1CC1)n1cc(-c2ncnn2C(F)F)cn1` [Example P762] it is 249 nM.
For the compound `CC1CC1CC(c1ccc(-c2c(-n3cnnn3)ccc(Cl)c2F)c[n+]1[O-])n1cc(-c2ncnn2C(F)F)cn1` (stereo not drawn) [Example P764], the IC50 is more than 100 nM.
